Measurements: PMC8952364, “Polyphenols as Inhibitors of Antibiotic Resistant Bacteria—Mechanisms Underlying Rutin Interference with Bacterial Virulence” (Pharmaceuticals, 2022)
Values after ≈ are worked out from the molar mass of the structure shown.

Assays:
[1] = tested on: Methicillin resistant S. aureus IBRS MRSA 011; assay: Antimicrobial microdilution assay (MIC/MBC); format: cell-based, Staphylococcus aureus; details: Staphylococcus aureus, MRSA
In short: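 Broth microdilution with 0.5 McFarland suspension diluted twenty-fold and mixed 1:10 with compound (0.0039–1 mg/mL, from 30% ethanol stocks); 24 h at 37 °C. Triplicate runs.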

[2] = tested on: P. aeruginosa IBRS P001 biofilm; assay: Crystal violet antibiofilm assay (biofilm formation); format: cell-based, Pseudomonas aeruginosa; details: 24 h
In short: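 After incubation, biofilms were washed with PBS (pH 7.4), methanol-fixed and stained 30 min with 0.1% crystal violet. Stain was solubilised in 96% ethanol and read at 620 nm. Values are biofilm-forming capacity (%) relative to control.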

EPS production = tested on: EPS production; design: method as in doi:10.1016/j.foodcont.2018.02.044; details: 200 µg/mL of rutin; cited from earlier work
[3] = tested on: P. aeruginosa IBRS P001 biofilm; assay: Congo red binding assay, exopolysaccharide production (biofilm formation); format: cell-based, Pseudomonas aeruginosa
Description: (§1) The estimation of rutin’s impact on biofilm exopolysaccharide production (EPS) was determined by the Congo red binding assay. P. aeruginosa IBRS P001 biofilm EPS production was determined as previously described. […] The planktonic cells were removed, and the adherent cells were washed with PBS. Wells were stained with 1% (w/v) Congo red (SigmaAldrich, Germany) in the dark for 30 min. Wells were aspirated and subsequently the bound dye was solubilized with 200 μL DMSO. Absorbance at 490 nm was measured in a microtiter plate reader Multiskan™ FC microplate photometer (Thermo Scientific™, United States) and the inhibition percentage of EPS production was calculated according to the following equation:%Inhibition = [(A490control − A490sample)/A490control] × 100
With A490control representing the absorbance of the untreated biofilm and A490sample the absorbance of the rutin treated sample. The solvent treated sample was used as the control.

P. aeruginosa IBRS P001 = assay: Catheter biofilm inhibition model; format: cell-based, Pseudomonas aeruginosa; details: MIC and 0.5 MIC of rutin, 24 h
Description: The method was performed as described previously, with some modifications. Sterile silicon 16-mm Romed catheters (Van Oostveen Medical, Wilnis, The Netherlands) were cut into 1 cm lengths and placed in 24-well plates (Sarstedt, Nümbrecht, Germany). P. aeruginosa IBRS P001 and MRSA in TSB with 2% glucose (Torlak, Belgrade, Serbia) and rutin (0.25–1 MIC) were added for the inhibition assay. After incubation (37 °C, 24 h), the catheters were washed with PBS and transferred to 1.5 mL tubes. PBS was added and tubes were vortexed vigorously. The samples were diluted and seeded onto Plate Count Agar (HiMedia Laboratories, Mumbai, India). After being incubated at 37 °C for 24 h, the CFU (colony forming units) count was determined and the inhibition percentage relative to the untreated control was calculated.

[4] = tested on: P. aeruginosa IBRS P001 pyocyanin production; assay: Pyocyanin assay; format: cell-based, Pseudomonas aeruginosa; details: 0.25 mg/mL (0.5 MIC), compared to the control
Description: Pyocyanin extraction from the culture supernatant was performed using chloroform in a 1:2 ratio [71]. The second extraction of the chloroform phase was done by 0.2 N HCl (3:1 ratio). The pyocyanin concentration was evaluated by recording the absorbance at 520 nm using a Plate Reader Infinite 200 pro (MTX Lab Systems, Vienna, VA, USA). The pyocyanin concentration was calculated by multiplication of the absorbance (A520) by 17.072. A solvent-treated culture supernatant was used as a positive control.

[5] = tested on: 24 h old P. aeruginosa IBRS P001 biofilms; assay: Biofilm eradication, Congo red binding assay (exopolysaccharide); format: cell-based, Pseudomonas aeruginosa
Description: as §1
The bacterial cells were incubated in TSB enriched with 2% glucose in 96-well plates (Sarstedt, Germany) with adhesive bottom at 37 °C for 24 h. After incubation, wells were washed with PBS, and rutin (MBC–4 MBC) in TSB with 2% glucose was added. Incubation continued at 37 °C for another 24 h. The planktonic cells were removed.
The assays continued as described above for the crystal violet antibiofilm assay for the measurement of biofilm mass, biofilm MTT assay for the interference with cell viability, Congo red binding assay for estimation of exopolysaccharide production, and eDNA assay.

[6] = tested on: P. aeruginosa IBRS P001 biofilm; assay: Biofilm MTT assay (biofilm formation); format: cell-based, Pseudomonas aeruginosa; details: rutin MIC, co-incubation 24 h
Description: The impact of rutin on P. aeruginosa IBRS P001 biofilm formation was determined as previously described by estimating the metabolic activity of microbial cells using an MTT assay. […] The supernatants were then ejected and the biofilms washed with PBS. MTT reagent (200 μL, 0.5 mg/mL) was added and the plate was incubated at 37 °C in the dark for 2 h. The resulting dye was dissolved in DMSO and the absorbance was measured at 570 nm in a microtiter plate reader Multiskan™ FC Microplate Photometer, Thermo Scientific™. The inhibition percentage of biofilm cell viability was calculated:%Inhibition = [(A570control − A570sample)/A570control] × 100
With A570control representing the absorbance of untreated sample, and A570sample representing the absorbance of the rutin treated sample. A solvent-treated sample was used as the control.

With `C[C@@H]1O[C@@H](OC[C@H]2O[C@@H](Oc3c(-c4ccc(O)c(O)c4)oc4cc(O)cc(O)c4c3=O)[C@H](O)[C@@H](O)[C@@H]2O)[C@H](O)[C@H](O)[C@H]1O` [Rutin, rutin] the MIC ([1]; 37 °C, 24 h, read-out: MIC) was 500 µg/mL (≈ 819 µM), the MBC ([1]; subcultivation, 24 h at 37 °C, read-out: MBC) was 1000 µg/mL (≈ 1640 µM) and the “reduction of biofilm formation (biomass), in words” value ([2]; MIC and sub-MIC, crystal violet, Figure 1) was “significant (****, p < 0.0001) reduction”. The “biofilm biomass formed after treatment” value ([2]; MIC, 500 µg/mL) was 6%, the inhibition at 500 µg/mL ([2]; Pseudomonas aeruginosa, IBRSP001BIOFILM, 500 µg/mL (MIC)) was 94% and the “inhibition of EPS production” value (EPS production) was “more than 40%”. The “exopolysaccharide level, % of production compared to vehicle treated control” value (“exopolysaccharide level, % of production” below) ([3]; 0.25 MIC) was 72%, the “exopolysaccharide level, % of production” value ([3]; 0.5 MIC) was 56% and the “exopolysaccharide level, % of production” value ([3]; MIC) was 50%. For the same compound, the inhibition at 250 µg/mL ([3]; Pseudomonas aeruginosa, IBRSP001BIOFILM, read-out: inhibition of produced exopolysaccharides) was 44%, the “biofilm inhibition on catheter” value (P. aeruginosa IBRS P001) was 100% and the “number of colonies attached to the urinary catheters” value (P. aeruginosa IBRS P001) was 0. For the same compound, the “decrease of pyocyanin production” value [4] was 82.1%, the “exopolysaccharide production decreased to” value ([5]; 2 MBC) was 65% and the “exopolysaccharide production decreased to” value ([5]; 4 MBC) was 69%. The “exopolysaccharide production decreased to” value ([5]; MBC) was 89% and the “reduction of metabolic activity of cells forming the biofilm” value [6] was 88%.
